What was measured:
[1] = known from the literature; cited from earlier work
[2] = Affinity of subject ligand for Zn2+; type: binding
Description: Fluorescence Zn^2+ Binding Titration (Kd1). The first Kd associated with Zn^2+ binding will be measured by a fluorescence titration as described previously. Spectra of the subject ligand will be acquired by exciting at 490 nm or other suitable wavelength and collecting and integrating from 500–575 nm or other appropriate window. The measurements will be performed in triplicate to ensure accuracy of the Kd value.

| SMILES | affinity and specificity for Zn^2+ over Mg^2+ and Ca^2+ [1] | affinity for Zn^2+ [2] |
| --- | --- | --- |
| c1ccc(CN(CCN(Cc2ccccn2)Cc2ccccn2)Cc2ccccn2)nc1 [TPEN] | very high affinity and specificity | – |
| O=C(O)c1ccccc1-c1c2cc(Cl)c(=O)cc-2oc2cc(N(Cc3ccccn3)Cc3ccccn3)ccc12 [compound 30, 9-(o-Carboxyphenyl)-2-chloro-6-[bis(2-pyridylmethyl)amino]-3-xanthanone] | – | weak |

— patent US7018840B2, “Fluorescent metal sensors, and methods of making and using the same” (Massachusetts Institute of Technology, priority 2001, dated 2006)
